In patent publication US8168651B2, “Protein kinase modulators” (Cylene Pharmaceuticals, Inc., priority 2008, dated 2012) one finds IC50 and inhibition data, which are given here for 43 molecules.

Experiment [1] has as its system HCT-116 human colorectal carcinoma cells. Nature of the experiment: Cell-proliferation assay using Alamar Blue dye.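 Also: cells exposed to compound for about 4 days, then Alamar Blue added and dye fluorescence read after about 4 h, compared with medium-only control wells.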 The experiment is classed as cell-based. Particulars: Homo sapiens.
In the next experiment the target is recombinant human PIM1 (Homo sapiens (Human), UniProt P11309). The experiment in a line: PIM-1 kinase activity in cell-free in vitro assay. It counts as biochemical. Particulars: for inhibition at 0.5 µM: 500 nM compound, read-out: PIM-1: % inh 500 nM.
[2] abbreviates: HCT-116, read-out: HCT-116 (uM), cell proliferation modulatory activity, HCT-116, second column.
Setting [3] is: HCT-116, HCT-116, first column, read-out: HCT-116 (uM), cell proliferation modulatory activity.
Setting [4] is: HCT-116, read-out: HCT-116 (uM), cell proliferation modulatory activity, HCT-116, first column.

Where two headings read alike, the source gives them in different places. Where only a bound is given, the exact number is not on record here.

Sequence of recombinant human PIM1 (P11309 whole entry): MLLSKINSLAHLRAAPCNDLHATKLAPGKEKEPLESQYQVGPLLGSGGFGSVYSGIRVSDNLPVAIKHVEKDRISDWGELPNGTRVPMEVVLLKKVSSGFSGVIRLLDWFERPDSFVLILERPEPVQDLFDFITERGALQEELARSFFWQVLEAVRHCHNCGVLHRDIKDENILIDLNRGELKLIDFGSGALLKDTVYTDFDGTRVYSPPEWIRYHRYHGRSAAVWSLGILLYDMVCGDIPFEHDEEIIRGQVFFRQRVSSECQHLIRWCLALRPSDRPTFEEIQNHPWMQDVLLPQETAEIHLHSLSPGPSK

On to `CC(C)Oc1cccc(Nc2nc3cc(-c4nnn[nH]4)ccc3c3sccc23)c1`, for which, in experiment [1] (setting [2]), the IC50 is over 10 µM. For the same molecule, the inhibition at 0.5 µM on recombinant human PIM1 (cell-free) turned out to be 31.9%.

On to `COc1cc(Nc2nc3cc(-c4nnn[nH]4)ccc3c3sccc23)cc(OC)c1`, for which the IC50 in experiment [1] (setting [2]) was 15 µM; on recombinant human PIM1 (cell-free), 0.465 µM. The inhibition at 0.5 µM at recombinant human PIM1 (cell-free) is 55.8%.

For the molecule `COc1cc(Nc2nc3cc(-c4nnn[nH]4)ccc3c3sccc23)ccc1F`, in experiment [1] (setting [2]), the IC50 was over 10 µM. Also, the inhibition at 0.5 µM at recombinant human PIM1 (cell-free) amounted to 35%.

As for `CCOc1cccc(Nc2nc3cc(-c4nnn[nH]4)ccc3c3sccc23)c1`, the IC50 was over 10 µM in experiment [1] (setting [2]) and 0.384 µM on recombinant human PIM1 (cell-free). The inhibition at 0.5 µM at recombinant human PIM1 (cell-free) was 57.7%.

As to `CCc1cccc(Nc2nc3cc(-c4nnn[nH]4)ccc3c3sccc23)c1`, in experiment [1] (setting [2]), the IC50 was over 10 µM. Besides, on recombinant human PIM1 (cell-free), the inhibition at 0.5 µM is 61% and the IC50 is over 1.1 µM.

With `c1cc2c(Nc3ccc4c(c3)OCCO4)nc3cc(-c4nnn[nH]4)ccc3c2s1`, the IC50 in experiment [1] (setting [2]) is over 10 µM. Besides, the inhibition at 0.5 µM on recombinant human PIM1 (cell-free) worked out at 26.7%.

For `O=C(O)c1ccc2c(c1)nc(Nc1cc(Cl)ccc1F)c1ccsc12`, the IC50 in experiment [1] (setting [2]) was over 10 µM; on recombinant human PIM1 (cell-free), 0.42 µM. At recombinant human PIM1 (cell-free), the inhibition at 0.5 µM was 52.8%.

As for `CCOc1cccc(Nc2nc3cc(C(=O)O)ccc3c3sccc23)c1`, the IC50 in experiment [1] (setting [2]) was over 10 µM. Also, the inhibition at 0.5 µM at recombinant human PIM1 (cell-free) came out at 16.8%.

Regarding `O=C(O)c1ccc2c(c1)nc(Nc1cccc(Oc3ccccc3)c1)c1ccsc12`, in experiment [1] (setting [2]), the IC50 is over 10 µM. Moreover, the inhibition at 0.5 µM on recombinant human PIM1 (cell-free) is -10.2%.

In the case of `NS(=O)(=O)c1cccc(Nc2nc3cc(C(=O)O)ccc3c3sccc23)c1`, in experiment [1] (setting [2]), the IC50 is over 10 µM. For the same molecule, the inhibition at 0.5 µM at recombinant human PIM1 (cell-free) was 21.7%.

As to `O=C(c1cccc(Nc2nc3cc(-c4nnn[nH]4)ccc3c3sccc23)c1)N1CCOCC1`, the IC50 in experiment [1] (setting [2]) was over 10 µM. Also, at recombinant human PIM1 (cell-free), the inhibition at 0.5 µM is 21%.

Take `CN(C)CCNC(=O)c1cccc(Nc2nc3cc(-c4nnn[nH]4)ccc3c3sccc23)c1`: the IC50 was over 10 µM in experiment [1] (setting [2]) and 0.38 µM at recombinant human PIM1 (cell-free). For the same molecule, the inhibition at 0.5 µM at recombinant human PIM1 (cell-free) stood at 71.1%.

Consider `COC(=O)CNC(=O)c1cccc(Nc2nc3cc(-c4nnn[nH]4)ccc3c3sccc23)c1`, for which, in experiment [1] (setting [2]), the IC50 is over 10 µM. For the same molecule, at recombinant human PIM1 (cell-free), the inhibition at 0.5 µM turned out to be 48%.

Turning to `O=C(NCc1cccnc1)c1cccc(Nc2nc3cc(-c4nnn[nH]4)ccc3c3sccc23)c1`, in experiment [1] (setting [2]), the IC50 is over 10 µM. The inhibition at 0.5 µM on recombinant human PIM1 (cell-free) worked out at 29.6%.

`CN(C)C(=O)c1cccc(Nc2nc3cc(-c4nnn[nH]4)ccc3c3sccc23)c1`: the IC50 in experiment [1] (setting [2]) was over 10 µM. Further, the inhibition at 0.5 µM on recombinant human PIM1 (cell-free) was found to be 49.1%.

For the molecule `CC(=O)N1CCN(C(=O)c2cccc(Nc3nc4cc(-c5nnn[nH]5)ccc4c4sccc34)c2)CC1`, the IC50 in experiment [1] (setting [2]) was over 10 µM. The inhibition at 0.5 µM at recombinant human PIM1 (cell-free) stood at 48.4%.

Take `CCCNC(=O)c1cccc(Nc2nc3cc(C(=O)O)ccc3c3sccc23)c1`: the IC50 in experiment [1] (setting [2]) was over 10 µM. For the same molecule, at recombinant human PIM1 (cell-free), the inhibition at 0.5 µM amounted to 13.3%.

On to `O=C(O)c1ccc2c(c1)nc(Nc1cccc(C(=O)N3CCOCC3)c1)c1ccsc12`, for which the IC50 in experiment [1] (setting [2]) was over 10 µM. Also, the inhibition at 0.5 µM at recombinant human PIM1 (cell-free) was determined as 46.4%.

Regarding `O=C(O)CNC(=O)c1cccc(Nc2nc3cc(C(=O)O)ccc3c3sccc23)c1`, in experiment [1] (setting [2]), the IC50 was over 10 µM. Further, the inhibition at 0.5 µM on recombinant human PIM1 (cell-free) turned out to be 24%.

Consider `CN(C)CCNC(=O)c1cccc(Nc2nc3cc(C(=O)O)ccc3c3sccc23)c1`, for which the IC50 in experiment [1] (setting [2]) was over 10 µM. Also, on recombinant human PIM1 (cell-free), the inhibition at 0.5 µM turned out to be 74.7% and the IC50 worked out at 0.436 µM.

Turning to `O=C(O)c1ccc2c(c1)nc(Nc1cccc(C(=O)NC3CC3)c1)c1ccsc12`, the IC50 in experiment [1] (setting [2]) is over 10 µM. For the same molecule, the inhibition at 0.5 µM at recombinant human PIM1 (cell-free) is 37.5%.

Regarding `CNC(=O)Cc1cccc(Nc2nc3cc(C(=O)O)ccc3c3sccc23)c1`, the IC50 in experiment [1] (setting [2]) was over 10 µM. In addition, on recombinant human PIM1 (cell-free), the inhibition at 0.5 µM amounted to 38%.

For `O=C(O)c1ccc2c(c1)nc(Nc1cccc(Br)c1)c1ccsc12`, the IC50 in experiment [1] (setting [2]) is over 10 µM. Further, at recombinant human PIM1 (cell-free), the inhibition at 0.5 µM amounted to 57.9% and the IC50 came to 0.553 µM.

For the molecule `O=C(O)c1ccc2c(c1)nc(Nc1cccc(Cl)c1F)c1ccsc12`, the IC50 in experiment [1] (setting [2]) is over 10 µM. The inhibition at 0.5 µM on recombinant human PIM1 (cell-free) worked out at 27.6%.

Regarding `O=C(O)c1ccc2c(c1)nc(Nc1ccc3[nH]ccc3c1)c1ccsc12`, the IC50 in experiment [1] (setting [2]) was over 10 µM. Also, on recombinant human PIM1 (cell-free), the inhibition at 0.5 µM amounted to 51.9% and the IC50 worked out at 0.679 µM.

For the molecule `Cc1cccc(Nc2nc3cc(C(=O)O)ccc3c3sccc23)c1`, the IC50 in experiment [1] (setting [2]) is over 10 µM; at recombinant human PIM1 (cell-free), 0.53 µM. Further, the inhibition at 0.5 µM on recombinant human PIM1 (cell-free) worked out at 59.1%.

`O=C(O)c1ccc2c(c1)nc(Nc1ccc3cc[nH]c3c1)c1ccsc12`: in experiment [1] (setting [2]), the IC50 is over 10 µM. For the same molecule, at recombinant human PIM1 (cell-free), the inhibition at 0.5 µM came to 47.2%.

On to `CCc1cccc(Nc2nc3cc(C(=O)O)ccc3c3sccc23)c1`, for which, in experiment [1] (setting [2]), the IC50 was over 10 µM. In addition, on recombinant human PIM1 (cell-free), the inhibition at 0.5 µM worked out at 51.6% and the IC50 was found to be 0.814 µM.

`O=C(O)c1ccc2c(c1)nc(Nc1cccc(I)c1)c1ccsc12`: the IC50 in experiment [1] (setting [2]) is over 10 µM. On recombinant human PIM1 (cell-free), the inhibition at 0.5 µM was found to be 40.5%.

Turning to `O=C(O)c1ccc2c(c1)nc(Nc1cccc(F)c1F)c1ccsc12`, the IC50 in experiment [1] (setting [2]) was over 10 µM. For the same molecule, on recombinant human PIM1 (cell-free), the inhibition at 0.5 µM worked out at 72.9% and the IC50 came to 0.855 µM.

`O=C(O)c1ccc2c(c1)nc(Nc1cc(F)cc(C(F)(F)F)c1)c1ccsc12`: in experiment [1] (setting [2]), the IC50 is over 10 µM. Besides, on recombinant human PIM1 (cell-free), the inhibition at 0.5 µM was 82.6% and the IC50 was found to be 0.336 µM.

As for `O=C(O)c1cc(F)cc(Nc2nc3cc(C(=O)O)ccc3c3sccc23)c1`, the IC50 in experiment [1] (setting [2]) is over 10 µM. For the same molecule, on recombinant human PIM1 (cell-free), the inhibition at 0.5 µM was 51% and the IC50 turned out to be 0.521 µM.

Consider `O=C(O)c1ccc2c(c1)nc(Nc1cc(F)ccc1F)c1ccsc12`, for which the IC50 in experiment [1] (setting [2]) is over 10 µM. Besides, at recombinant human PIM1 (cell-free), the inhibition at 0.5 µM came out at 67.1% and the IC50 stood at 0.308 µM.

For `O=C(O)c1ccc2c(c1)nc(Nc1cccc(S(=O)(=O)NC3CC3)c1)c1ccsc12`, the IC50 in experiment [1] (setting [2]) is over 10 µM. At recombinant human PIM1 (cell-free), the inhibition at 0.5 µM was 75.4% and the IC50 was determined as 0.568 µM.

With `Fc1cc(Cl)cc(Nc2nc3cc(-c4nnn[nH]4)ccc3c3sccc23)c1`, the IC50 in experiment [1] (setting [2]) is over 10 µM. Besides, on recombinant human PIM1 (cell-free), the inhibition at 0.5 µM stood at 82% and the IC50 stood at 0.562 µM.

For `C#Cc1cccc(Nc2nc3cc(-c4nnn[nH]4)ccc3c3sccc23)c1`, the IC50 in experiment [1] (setting [2]) was over 10 µM; on recombinant human PIM1 (cell-free), 0.716 µM. In addition, the inhibition at 0.5 µM at recombinant human PIM1 (cell-free) was found to be 64.6%.

`C#Cc1cccc(Nc2nc3cc(C(=O)O)ccc3c3cnc(NCCOC)nc23)c1`: the IC50 in experiment [1] (HCT-116, read-out: HCT-116 (uM), cell proliferation modulatory activity, HCT-116, second HCT-116 column (c8)) was 8.05 µM; on recombinant human PIM1 (cell-free assay), over 1.1 µM. In addition, at recombinant human PIM1 (cell-free assay), the inhibition at 0.5 µM was 55.5%.

Turning to `O=C(O)c1ccc2c(c1)nc(Nc1cc(-c3ccccc3)[nH]n1)c1ccncc12`, the IC50 in experiment [1] (HCT-116, second HCT-116 column (c8), read-out: HCT-116 (uM) cell proliferation modulatory activity) was over 10 µM. On recombinant human PIM1 (cell-free assay), the inhibition at 0.5 µM was 56% and the IC50 was over 1.1 µM.

Consider `COC(=O)c1ccc2c(c1)nc(Cl)c1ccsc12` [drawing 1375], for which the IC50 in experiment [1] (setting [3]) worked out at 10 µM. Moreover, the inhibition at 0.5 µM on recombinant human PIM1 (cell-free) is -30%.

With `O=C(O)c1ccc2c(c1)nc(OCCCO)c1ccccc12` [drawing 1388], the IC50 in experiment [1] (setting [3]) was 10 µM. On recombinant human PIM1 (cell-free), the inhibition at 0.5 µM was 1.05%.

Consider `COC(=O)c1ccc2c(c1)[nH]c(=O)c1ccncc12` [drawing 1390], for which the IC50 in experiment [1] (setting [4]) came to 10 µM. Besides, the inhibition at 0.5 µM at recombinant human PIM1 (cell-free) was found to be 0.802%.

In the case of `CN(C)CCNc1nc2cc(C(=O)O)ccc2c2ccccc12` [drawing 1391], the IC50 in experiment [1] (setting [4]) was determined as 10 µM. At recombinant human PIM1 (cell-free), the inhibition at 0.5 µM stood at 35%.

For the molecule `O=C(O)c1ccc2c(c1)nc(Nc1ccccc1)c1ccccc12` [drawing 1394], the IC50 in experiment [1] (setting [4]) came to 10 µM. Further, the inhibition at 0.5 µM on recombinant human PIM1 (cell-free) was 28.1%.
